# Literature values, collected in the CATMoS acute toxicity set (Mansouri et al. 2021).
# Where “and” joins values, the source holds several entries; their conditions need not be identical. Identical values can stand only once.
# Assay: rat acute oral toxicity
# Details: in vivo
row,SMILES,LD50
1,O=[N+]([O-])c1nccn1CC(O)CO (stereo unspecified),5080 mg/kg
2,C[N+](C)(N)CCBr,3200 mg/kg
3,CCOC(=O)C1(c2ccccc2)CCN(CCC(C#N)(c2ccccc2)c2ccccc2)CC1,221 mg/kg
4,c1ccc(C2(c3ccccc3)COC(c3ccccc3)(C3CCCCN3)OC2)cc1 (stereo unspecified),300 mg/kg
5,O=S(=O)(O)c1c(O)ccc2ccccc12,3170 mg/kg
6,CCOC(=O)C=Cc1ccc(Cl)cc1,957 mg/kg
7,CN1CCC23CCCCC2C1Cc1ccc(O)cc13 (stereo unspecified),350 mg/kg
8,CCCCC(CC)COC(CBr)c1cccc(C2CCCCC2)c1 (stereo unspecified),250 mg/kg
9,CC1(C)C(=O)[C@@]2(C)CC[C@@H]1C2,6160 mg/kg
10,ClCc1ccccn1,316 mg/kg
11,CC(C)(C)OOC(=O)C(C)(C)C,4300 mg/kg
12,Clc1ccc(C(Cl)(Cl)c2ccc(Cl)cc2)cc1,168 mg/kg
13,Cc1ccc2[nH]nnc2c1,1600 mg/kg
14,CCCOP(=O)(OCCC)Oc1ccc2c(C)c(Cl)c(=O)oc2c1,80 mg/kg
15,CCOP(=O)(OCC)SC,47.1 mg/kg
16,COP(=S)(OC)SCC(=O)N1CCOCC1,190 mg/kg
17,CCOCCOCCOc1ccccc1,2140 mg/kg
18,ONc1ccccc1,100 mg/kg
19,CCCCCC(C=Cn1ccnc1)OCc1ccccc1 (stereo unspecified),2550 mg/kg
20,COC(=O)C(c1ccccc1)C1CCCCN1 (stereo unspecified),367 mg/kg and 350 mg/kg
21,CC1(C)OCC(CO)O1 (stereo unspecified),7000 mg/kg

row,SMILES,LD50
1,CC1=Nc2ccc(Cl)cc2S(=O)(=O)N1,980 mg/kg
2,CNCc1cccc2ccccc12,50 mg/kg
3,O=C1C(=C(Cl)Cl)C(=O)C2(Cl)C3C=CC(C3)C12Cl (stereo unspecified),2760 mg/kg
4,Cc1cc(-c2ccc(/N=N/c3c(N)c(C)cc(S(=O)(=O)O)c3N)c(C)c2)ccc1/N=N/c1ccc(O)c(C(=O)O)c1,6830 mg/kg
5,O=S(=O)(C(Cl)CCl)C(Cl)CCl (stereo unspecified),250 mg/kg
6,O=C(Cc1ccc(-c2ccccc2)cc1)OCCF,6 mg/kg
7,CC(C(=O)O)c1cccc(Oc2ccccc2)c1 (stereo unspecified),800 mg/kg
8,O=C1c2ccccc2C(=O)C1c1ccc(Cl)cc1,290 mg/kg
9,CCCN(CCC)C(=O)C(Cc1ccc(OCCN(CC)CC)cc1)NC(=O)c1ccccc1 (stereo unspecified),800 mg/kg and 1070 mg/kg
10,NCC(O)c1cccc(O)c1 (stereo unspecified),390 mg/kg
11,CCC(C)c1ccc(Oc2ccc(C)cc2CC(=O)O)c(Cl)c1 (stereo unspecified),1110 mg/kg
12,NC(=O)CC[C@H](N)C(=O)O,7500 mg/kg
13,N#CSCCSC#N,50 mg/kg
14,[O-][N+](=Nc1ccccc1)c1ccccc1,620 mg/kg
15,Cc1ccc(CO)cc1,3900 mg/kg
16,CC1Cc2cc3c(cc2C(c2ccc(N)cc2)=NN1)OCO3 (stereo unspecified),350 mg/kg
17,COc1nccc(C(F)(F)F)c1S(=O)(=O)Cl,3130 mg/kg
18,O=S(=O)(O)c1c(Cl)c(Cl)c(Cl)c2[nH]c(C(F)(F)F)nc12,218 mg/kg
19,CCO[Si](CCCC#N)(OCC)OCC,4920 mg/kg
20,CN(N=O)C(=O)NC(N)=O,450 mg/kg
21,Cc1ccc(/N=N/c2c(O)c(S(=O)(=O)O)cc3ccc(S(=O)(=O)O)cc23)c(C)c1,23200 mg/kg

row,SMILES,LD50
1,CNC(=O)Oc1ccc(NC(=O)OC)c(C(C)C)c1,27 mg/kg
2,Nc1cc(Cl)c(N)c(Cl)c1,700 mg/kg
3,COc1c(O)c(Cl)c(Cl)c(Cl)c1Cl,1690 mg/kg
4,CN(C)N=Nc1ccc(C(=O)O)cc1,320 mg/kg
5,Cc1ccc2c(c1)CC(=O)c1cc(C(C)C(=O)O)ccc1S2 (stereo unspecified),100 mg/kg
6,COP(=S)(OC)SCCSc1ccc(Cl)cc1,100 mg/kg
7,ClC1(Cl)C2(Cl)C3C4(Cl)C1(Cl)C1(Cl)C4(Cl)C(Cl)(Cl)C3(Cl)C21Cl (stereo unspecified),200 mg/kg
8,CC(C)=CCC(CCN1CCCC1)(C(N)=O)c1cccc2ccccc12 (stereo unspecified),71 mg/kg
9,COC(=O)C=C(C)N,1760 mg/kg
10,NC1CC1,445 mg/kg
11,CCN(CC)C(=O)Nc1ccc(OCC(O)CNC(C)(C)C)c(C(C)=O)c1 (stereo unspecified),2160 mg/kg
12,CS(=O)(=O)O,6170 mg/kg
13,"CC(Cc1ccc(C(C)(C)C)cc1)CN1C[C@@H](C)O[C@@H](C)C1 (single isomer, unassigned)",3540 mg/kg
14,N#CC=CCCC#N,380 mg/kg
15,CCCC(C)OP(=S)(OC)OC (stereo unspecified),311 mg/kg
16,O=C1C(I)=CC(=C(c2cc(I)c(O)c(I)c2)c2ccccc2C(=O)O)C=C1I,2800 mg/kg
17,CCOC1CC(C)C=CO1 (stereo unspecified),3400 mg/kg
18,C/C=C(C)/C=C/C=C(C)C,1900 mg/kg
19,Clc1ccc(C(OCCN2CCOCC2)c2ccccc2)cc1 (stereo unspecified),710 mg/kg
